Source: ChEMBL document CHEMBL4196200 (J Med Chem, 2018)
The source made the active and inactive calls. The calls are words filed in the database; no cut-off is given here.

Key:
[1] = tested on: Mus musculus; test: Improvement in social interaction in Oprm1-/- mouse model of autism spectrum disorders assessed as restoration of mean duration of nose contacts at 10 mg/kg, ip pre-treated before open-field test for 10 mins; format: functional, organism-based
[2] = tested on: Mus musculus; test: Improvement in social interaction in Oprm1-/- mouse model of autism spectrum disorders assessed as restoration of time spent in nose contacts at 10 mg/kg, ip pre-treated before open-field test for 10 mins; format: functional, organism-based
[3] = tested on: Mus musculus; test: Effect on social interaction in Oprm1+/+ mouse model of autism spectrum disorders assessed as number of nose contacts at 10 mg/kg, ip pre-treated before open-field test for 10 mins; format: ADME, organism-based; conditions: in vivo
[4] = tested on: Mus musculus; test: Effect on social interaction in Oprm1+/+ mouse model of autism spectrum disorders assessed as increase in number of following episodes at 10 mg/kg, ip pre-treated before open-field test for 10 mins; format: ADME, organism-based; conditions: in vivo
[5] = tested on: Mus musculus; test: Effect on social interaction in Oprm1+/+ mouse model of autism spectrum disorders assessed as time spent in nose contacts at 10 mg/kg, ip pre-treated before open-field test for 10 mins; format: ADME, organism-based; conditions: in vivo
[6] = biological target: T1, Vasopressin V1b receptor (Homo sapiens, UniProt P47901)
T1 sequence (P47901 whole entry): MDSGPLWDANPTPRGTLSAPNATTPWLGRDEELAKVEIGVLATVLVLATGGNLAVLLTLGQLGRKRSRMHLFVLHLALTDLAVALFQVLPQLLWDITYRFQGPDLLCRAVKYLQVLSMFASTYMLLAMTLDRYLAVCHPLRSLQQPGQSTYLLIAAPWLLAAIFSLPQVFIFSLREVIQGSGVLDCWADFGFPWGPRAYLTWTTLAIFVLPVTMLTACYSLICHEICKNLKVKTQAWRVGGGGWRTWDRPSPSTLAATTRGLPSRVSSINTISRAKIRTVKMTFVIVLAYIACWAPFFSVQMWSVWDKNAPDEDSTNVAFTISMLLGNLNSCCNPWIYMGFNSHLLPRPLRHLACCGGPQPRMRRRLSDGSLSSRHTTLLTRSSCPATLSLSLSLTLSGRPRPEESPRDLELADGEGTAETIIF
Description: Agonist activity at human V1b receptor expressed in HEK293FT cells incubated for 30 mins by beta-arrestin recruitment assay

[7] = biological target: T2, Vasopressin V1a receptor (Homo sapiens, UniProt P37288); test: Antagonist activity at human V1a receptor expressed in HEK293FT cells assessed as inhibition of AVP-induced calcium release by Aequorin based assay; format: functional, cell-based
T2 sequence (P37288 whole entry): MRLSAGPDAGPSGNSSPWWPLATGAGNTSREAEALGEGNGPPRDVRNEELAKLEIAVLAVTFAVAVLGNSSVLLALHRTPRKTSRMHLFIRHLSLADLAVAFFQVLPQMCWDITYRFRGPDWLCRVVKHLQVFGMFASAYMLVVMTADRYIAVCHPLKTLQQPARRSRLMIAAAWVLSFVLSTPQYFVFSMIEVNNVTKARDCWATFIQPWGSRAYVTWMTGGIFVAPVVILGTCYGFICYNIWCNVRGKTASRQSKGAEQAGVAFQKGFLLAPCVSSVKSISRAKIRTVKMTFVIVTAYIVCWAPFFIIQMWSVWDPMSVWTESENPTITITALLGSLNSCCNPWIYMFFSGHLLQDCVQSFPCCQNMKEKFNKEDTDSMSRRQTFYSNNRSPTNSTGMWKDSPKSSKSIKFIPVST

[8] = biological target: T2, Vasopressin V1a receptor; test: Antagonist activity at human V1A receptor expressed in HEK cells assessed as inhibition of AVP-induced intracellular calcium flux incubated for 45 mins by Indo1-AM dye based fluorescence assay relative to AVP; format: functional, cell-based
[9] = biological target: T3, Oxytocin receptor (Mus musculus, UniProt P97926); test: Agonist activity at mouse OTR receptor expressed in HEK293FT cells assessed as stimulation of calcium release by Aequorin based assay; format: functional, cell-based
T3 sequence (P97926 whole entry): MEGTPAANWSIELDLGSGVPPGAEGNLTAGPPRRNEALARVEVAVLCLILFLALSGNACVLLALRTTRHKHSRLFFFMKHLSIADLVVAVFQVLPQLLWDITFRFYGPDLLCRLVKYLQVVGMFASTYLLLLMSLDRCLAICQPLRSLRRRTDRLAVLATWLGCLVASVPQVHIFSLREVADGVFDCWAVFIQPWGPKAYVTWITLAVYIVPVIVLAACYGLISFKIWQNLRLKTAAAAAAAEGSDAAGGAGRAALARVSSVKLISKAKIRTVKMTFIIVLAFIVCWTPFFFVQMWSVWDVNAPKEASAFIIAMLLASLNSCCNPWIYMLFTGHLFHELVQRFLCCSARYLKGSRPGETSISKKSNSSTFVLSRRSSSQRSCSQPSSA

[10] = biological target: T4, Oxytocin receptor (Homo sapiens, UniProt P30559); test: Agonist activity at human OTR receptor expressed in HEK293FT cells assessed as stimulation of calcium release by Aequorin based assay; format: functional, cell-based
T4 sequence (P30559 whole entry): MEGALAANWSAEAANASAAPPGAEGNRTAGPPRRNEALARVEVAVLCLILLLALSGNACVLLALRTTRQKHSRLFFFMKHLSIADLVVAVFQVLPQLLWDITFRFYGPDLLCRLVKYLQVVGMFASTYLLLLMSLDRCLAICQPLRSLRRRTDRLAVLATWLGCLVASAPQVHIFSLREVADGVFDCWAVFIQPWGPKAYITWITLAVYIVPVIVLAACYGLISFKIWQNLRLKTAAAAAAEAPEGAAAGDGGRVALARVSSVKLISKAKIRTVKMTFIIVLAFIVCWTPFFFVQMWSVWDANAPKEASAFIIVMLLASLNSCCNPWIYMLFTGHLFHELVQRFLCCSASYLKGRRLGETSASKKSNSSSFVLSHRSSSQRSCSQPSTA

[11] = tested on: Mus musculus; test: Improvement in social interaction in Oprm1-/- mouse model of autism spectrum disorders assessed as restoration of number of following episodes at 10 mg/kg, ip pre-treated before open-field test for 10 mins; format: functional, organism-based
[12] = biological target: T1, Vasopressin V1b receptor; test: Antagonist activity at human V1b receptor expressed in HEK293FT cells assessed as inhibition of AVP-induced calcium release by Aequorin based assay; format: functional, cell-based
[13] = biological target: Vasopressin V2 receptor (Homo sapiens, UniProt P30518); test: Agonist activity at human V2 receptor expressed in HEK293FT cells incubated for 30 mins by beta-arrestin recruitment assay relative to AVP; format: functional, cell-based
Sequence of Vasopressin V2 receptor (P30518 whole entry): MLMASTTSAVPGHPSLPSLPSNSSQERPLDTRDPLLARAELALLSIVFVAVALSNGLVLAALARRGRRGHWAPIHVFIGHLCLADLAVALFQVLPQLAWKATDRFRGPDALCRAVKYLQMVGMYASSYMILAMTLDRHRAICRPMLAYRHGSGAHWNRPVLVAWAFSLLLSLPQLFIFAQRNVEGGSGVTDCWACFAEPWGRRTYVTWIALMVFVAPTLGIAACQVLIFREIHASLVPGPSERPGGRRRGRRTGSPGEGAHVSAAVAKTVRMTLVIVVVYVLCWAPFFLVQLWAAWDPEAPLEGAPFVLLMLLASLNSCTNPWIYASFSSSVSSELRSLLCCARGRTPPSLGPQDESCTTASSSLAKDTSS

[14] = tested on: Mus musculus; test: Improvement in social interaction in Oprm1-/- mouse model of autism spectrum disorders assessed as restoration of number of nose contacts at 20 mg/kg, ip pre-treated before open-field test for 10 mins; format: functional, organism-based
[15] = tested on: Mus musculus; test: Improvement in social interaction in Oprm1-/- mouse model of autism spectrum disorders assessed as suppression of grooming episodes occurring after social contact at 20 mg/kg, ip pre-treated before open-field test for 10 mins; format: functional, organism-based
[16] = biological target: T1, Vasopressin V1b receptor; remark: listed apart in the source
Description: Agonist activity at human V1b receptor expressed in HEK293FT cells assessed as stimulation of calcium release by Aequorin based assay

[17] = biological target: T1, Vasopressin V1b receptor; test: Antagonist activity at human V1b receptor expressed in HEK293FT cells assessed as inhibition of AVP-induced response incubated for 30 mins by beta-arrestin recruitment assay; format: functional, cell-based
[18] = tested on: Mus musculus; test: Improvement in social interaction in Oprm1-/- mouse model of autism spectrum disorders assessed as restoration of number of following episodes at 20 mg/kg, ip pre-treated before open-field test for 10 mins; format: functional, organism-based
[19] = biological target: T5, Oxytocin receptor (Homo sapiens) (UniProt P30559); test: Agonist activity at human OTR receptor expressed in HEK293FT cells incubated for 30 mins by beta-arrestin recruitment assay relative to OT; format: functional, cell-based
T5 sequence (whole entry): T4 sequence (P30559 whole entry)

[20] = biological target: T5, Oxytocin receptor (Homo sapiens); test: Agonist activity at human OTR receptor expressed in HEK293FT cells assessed as stimulation of calcium release by Aequorin based assay relative to OT; format: functional, cell-based

EC50 [6]: Not Active
IC50 [7]: 5900 nM
IC50 [8]: 100 nM
EC50 [9]: 18 nM
EC50 [10]: 25 nM
IC50 [12]: Not Active
Emax [13]: 97%
EC50 [16]: Not Active
IC50 [17]: Not Active
Emax [19]: 77%
Emax [20]: 96%
Structure (SMILES): Cc1cc(C(=O)N2Cc3cnn(C)c3Nc3ccccc32)ccc1CNC(=O)N1CCC[C@H]1C(=S)N(C)C
Activity [1]: Active
Activity [2]: Active
Activity [3]: Non-Toxic
Activity [4]: Toxic
Activity [5]: Non-Toxic
Activity [11]: Active
Activity [14]: inactive
Activity [15]: inactive
Activity [18]: inactive
